Assay results taken from patent US6462184B2, “Compounds, processes and intermediates for synthesis of mixed backbone oligomeric compounds” (ISIS Pharmaceuticals, Inc., priority 1999, dated 2002).
[PN] = dimethylaminoethyl (DMAE) phosphoramidate internucleoside linkage; e = 2'-O-(2-methoxyethyl) (MOE); d = 2'-deoxy (DNA)

What was measured:
c-raf mRNA = c-raf mRNA expression in A549 cells; type: cell-based, human; details: between 50-400 nM range
Protocol: Gapmers designed in this study are based on the parent sequence of ATGCATTCTGCCCCCAAGGA (SEQ ID No:9) which is a uniform deoxy phosphorothioate. This sequence is an antisense oligomeric compound targeted to mouse c-raf. c-raf m-RNA expression assay was carried out according to a reported procedure (Monia et al., Nature Medicinek, 1996, 2, 668). Human A549 lung carcinoma cells were obtained from the American Type Tissue Collection. These were grown in Dulbecco's modified Eagle's medium containing 1 g of glucose/liter (DMEM) and FCS (10%) and routinely passaged when 90-95% confluent.
Assay for Oligonucleoside Inhibition of c-raf Protein Synthesis: A549 cells were plated in 6-well plates (Falcon Labware, Lincoln Park, N.J.) and 24-48 hours later (when 80-90% confluent) treated with 1 μM phorbol 12,13-dibutyrate (PDBu) for 18 hours. This procedure removes greater than 75% of immunoreactive c-rafprotein from the cells. Cells were then washed three times with DMEM (3 mL) (to remove PDBu), and DMEM (1 mL) containing DOTMA/DOPE solution (20 μg/mL, LipofectinR, Bethesda Research Laboratories) was added. Oligonucleoside gapmers were then added to the required concentration (for our initial screen, 1 μM) from a 10 μM stock solution, and the two solutions were mixed by swirling of the dish. The cells were incubated at 37° C. for 4 hours, washed once with DMEM+FCS (10%) to remove the DOTMA/DOPE solution, and then additional DMEM (3 mL)+10% FCS was added and the cells were allowed to recover for another 10 hours. Total RNA is prepared 24 hours after the experiment and analyzed for c-raf and G3PDH mRNA levels after normalization to G3PDH mRNA.

ICAM-1 = ICAM-1 expression in HUVEC cells (flow cytometry); type: cell-based, human
Protocol: Targeted oligomeric compounds were prepared and assayed using HUVEC cells to determine their ability to inhibit the expression of ICAM-1. HUVEC cells were washed three times with Opti-MEM (Life Technologies, Inc.) that was prewarmed to 37° C. Oligomeric compounds were premixed with Lipofectin (10 μg/mL, Life Technologies, Inc.) in Opti-MEM, serially diluted to the desired concentrations, and applied to washed cells. Basal and untreated (no oligomeric compounds added) control cells were also treated with Lipofectin. Cells were incubated for 4 hours at 37° C., at which time the medium was removed and replaced with standard growth medium with or without TNF-a ([…], R&D Systems). Incubation at 37° C. was continued for different times as indicated below.
A fluorescence-activated cell sorter was used to quantitate ICAM-1 protein expression. The cells were removed from the plate surface by brief trypsinization with trypsin (0.25%) in PBS. Trypsin activity was quenched with a solution of bovine serum albumin (2%) and sodium azide (0.2%) in PBS (+Mg/Ca). […]
Expression of cell surface ICAM-1 was determined by flow cytometry using a Becton Dickinson FACScan. The percentage of ICAM-1 expression in the control was calculated as follows: [(oligomeric compound-treated ICAM-1 value)−(basal ICAM-1 value)/(non-treated ICAM-1 value)−(basal ICAM-1 value))].

Row | Substance | c-raf mRNA expression inhibition (c-raf mRNA) | controlling ICAM-1 expression (ICAM-1; HUVEC cells (printed HWEC), compound synthesized by amidite chemistry and same compound by H-phosphonate chemistry) | inhibiting ICAM-1 expression (ICAM-1; between 3 and 100 nM range, both compounds synthesized from different chemistries)
1 | A*NT*NG* C*A*T*S TSCSTS GSCSCS CSCSC* A*A*G* G*A* (antisense ATGCATTCTGCCCCCAAGGA; sugars from the 5' end e6 d8 e6, linkages [PN]2 o3 s9 o5 (s phosphorothioate, o phosphodiester), methylation of C not given here) [SEQ ID No 10, 2'-MOE gapmer with PN-PO-PS-PO mixed backbone, 20-mer] | dose dependent manner |  | 
2 | A*NT*NG* C*A*T*S TSCSTS GSCSCS CSCSC* A*A*G*N G*NA* (antisense ATGCATTCTGCCCCCAAGGA; 2'-MOE gapmer, mixed PN/PO/PS backbone, chemistry not fully specified) [SEQ ID No 11, 2'-MOE gapmer with PN-PO-PS-PO-PN mixed backbone, 20-mer] |  | efficacious | display dose response
3 | A*T*G* C*A*T*S TSCSTS GSCSCS CSCSC* A*A*G* G*A* (antisense ATGCATTCTGCCCCCAAGGA; 2'-MOE gapmer with mixed PO/PS backbone, marks not given here, further chemistry not given here) [SEQ ID No 9, 2'-MOE gapmer with PO-PS-PO mixed backbone, 20-mer, antisense to c-raf] | dose dependent manner |  | 
4 | T*NT*NT*S GSASCS ASCSGS GSCSAS CSCSAS T*ST*NT*N T* (antisense TTTGACACGGCACCATTTT; sugars from the 5' end e3 d12 e4, linkages [PN]2 s14 [PN]2 (s phosphorothioate, o phosphodiester), methylation of C not given here) [SEQ ID No 4, 2'-MOE gapmer with PN-PS-PN mixed backbone, 19-mer] | dose dependent manner |  | 
